Data on one compound can be found in US20260373174A1, “THYROID BETA-AGONIST DOSING REGIMENS FOR THE TREATMENT OF X-ALD” (Viking Therapeutics, Inc., priority 2022, published 2026).

The nature of this series: previous phase 1 study, single and multiple dose cohorts. It counts as in vivo, human. The conditions noted are these: doses used in this study (20, 40, 60, 80 mg QD, oral); preliminary results from 6 multiple dose cohorts (up to 100 mg) and 7 single dose cohorts (up to 125 mg).

Molecules are shown by their SMILES.

Turning to `Cc1cc(OCP(=O)(O)O)cc(C)c1Cc1ccc(O)c(Cc2ccccc2)c1` [Compound 1], the lipid plasma levels entry is “lowering of lipid plasma levels” and the safety result is “without safety issues”.
